The values below come from patent publication US20230285516A1 (priority 2020, published 2023).

Series [1] relates to IL-8. The experiment in a line: IL-8 in co-culture supernatants (ELISA). The format is cell-based, human. The following applies: tissue co-cultures from RA patients. The protocol:
(§1) Cartilage and synovium co-cultures were performed from 9 patients with RA and 8 patients with OA who underwent hip or knee replacement (Table 1). Joint tissue was cultured with (a) RPMI (control), (b) 1% type I polymerized collagen, for 7 days. The supernatants and tissues of days 1 and 7 were […] collected. In the culture supernatants the concentration of IL-1β, IL-8, IL-10, IL-12, TNF-α and IFN-γ was quantified by ELISA and the results were normalized with total protein concentration. The expression of IL-1β and TNF-α was evaluated using histochemistry.
(§2) FIG. 5. Effect of type I polymerized collagen on IL-8 expression in supernatants of cartilage and synovial tissue co-cultures from patients with rheumatoid arthritis (RA) or osteoarthritis (OA). The data represent the mean±SD of 9 co-cultures of cartilage and synovium from patients with RA and of 8 co-cultures of patients with OA. Each culture was performed in triplicate for each condition. The results were normalized with the total protein concentration of the supernatant, determined by the Folin-Löwry micromethod. AR: left panel. OA: panel on the right. Basal: tissue in basal conditions.

In series [2] the test system is TNF-α. Kind of series: TNF-α in co-culture supernatants (ELISA). The format is cell-based, human. The settings on record: RA or OA co-cultures, day 7 of culture. The protocol: as §1
as §2, with “4.” for “5.”, “TNF-α” for “IL-8”, “conditions. […] No detectable levels of IL-12 and IFN-γ were determined in the cultures.” for “conditions.”
On the technique in general: ELISA stands for enzyme-linked immunosorbent assay.

A short description of series [3]: Adverse events in the mouse study. The series is classed as in vivo, mice. The settings on record: after injection, throughout the study. The protocol: There was no evidence of adverse events after injection of placebo or the different treatments throughout the study. The only adverse event observed was pain lasting less than 15 minutes at the injection site.

In series [4] the test system is TNF-α. The experiment in a line: TNF-α tissue expression in cartilage and synovium co-cultures (histochemistry). The settings on record: RA or OA co-cultures, 1% type I polymerized collagen, 7 days. The series is classed as cell-based, human. The protocol: as §1
FIG. 2. Effect of type I polymerized collagen on TNF-α expression. (A) Cells immunoreactive to TNF-α in the synovial tissue of the co-cultures. (B) Immunoreactive TNF-α+ cells in cartilage from co-cultures. Rheumatoid arthritis (RA): left panel. Osteoarthritis (OA): right panel. Basal: tissue in basal conditions. […] Each culture was performed in triplicate for each condition, of which at least two sections of each of the tissues were analyzed. The results are expressed as the mean±standard error (SEM) of the percentage of immunoreactive cells in 9 co-cultures of patients with RA and 8 with OA. *p≤0.002.

Series [5] has as its system dendritic (CD4−/CD11c+) cells. Kind of series: FACS of spleen CD11c+ dendritic cells in CIA models. The following applies: CIA model. The series is classed as in vivo, mice. The protocol: (§3) Early Arthritis Model. Fifty mice with the same characteristics were immunized at the base of the tail with 100 μg of chicken type II collagen emulsified in complete Freund's adjuvant. The boost was applied on day 21 at the base of the tail with 100 μg of type II collagen emulsified with Freund's incomplete adjuvant. On the same boosting day, the treatments (a-d) were applied every week for six weeks. Three animals were euthanized in the sixth week and three in the thirteenth week. The spleen, lymph nodes, joint tissue, liver, lungs, kidneys and heart were obtained in order to assess the inflammatory infiltrate, the predominant cell populations and the expression of pro- and anti-inflammatory cytokines.
Established Arthritis Model. Arthritis was induced as in the previous model in 50 mice and the treatments were applied intramuscularly, after 2 weeks of the boost, every week for 6 weeks. Three animals were euthanized in the eighth week and three in the fifteenth week. The spleen, lymph nodes, joint tissue, liver, lungs, kidneys and heart were obtained in order to assess the inflammatory infiltrate, the predominant cell populations and the expression of pro- and anti-inflammatory cytokines.
Cytometric evaluation. […]
FIG. 12. […] The expression of CD11c was detected by flow cytometry. The results are representative of 6 mice analyzed in each group. […]

Series [6] has as its system Th2 (CD4+/IL-4+) cells. Kind of series: FACS of spleen Th2 cells in CIA models. The series is classed as in vivo, mice. The following applies: early arthritis model, first sacrifice only. The protocol:
as §3
Established Arthritis Model. Arthritis was induced as in the previous model in 50 mice and the treatments were applied intramuscularly, after 2 weeks of the boost, every week for 6 weeks. Three animals were euthanized in the eighth week and three in the fifteenth week. The spleen, lymph nodes, joint tissue, liver, lungs, kidneys and heart were obtained in order to assess the inflammatory infiltrate, the predominant cell populations and the expression of pro- and anti-inflammatory cytokines. […]
FIG. 10. […] The intracellular production of IL-17A, IL-4, IFN-γ and Foxp3 by CD4+ T cells was detected by flow cytometry. The results are representative of 6 mice analyzed in each group. […]

As for “collagen-polyvinylpyrrolidone [type I polymerized collagen]”, the “concentration of IL-8 in the supernatants of the co-cultures” value in series [1] is given as “greatest decrease”. The “expression of TNF-α vs. the controls in the supernatants” value in series [2] was “decreased”. The adverse events entry in series [3] is “no adverse effects”. Moreover, the “tissue expression of TNF-α vs. controls in synovial tissue” value in series [4] was “decreased”. Besides, in series [5], the “CD11c+ population (antigenic presentation)” value is reported as “decrease”. Moreover, the “number of circulating Th2 cells” value in series [6] is recorded as “modified”.
